Each compound was assayed against Ras-related protein Rab-2A (Canis lupus familiaris, UniProt P61105) (assay: wildtype Rab2 GTP-binding inhibitors, SAR follow-up, biochemical, multiplex dose response, Bodipy-FL-GTP, flow cytometry (AID 2033)). Conditions: not given.
Sequence of Ras-related protein Rab-2A (P61105 whole entry): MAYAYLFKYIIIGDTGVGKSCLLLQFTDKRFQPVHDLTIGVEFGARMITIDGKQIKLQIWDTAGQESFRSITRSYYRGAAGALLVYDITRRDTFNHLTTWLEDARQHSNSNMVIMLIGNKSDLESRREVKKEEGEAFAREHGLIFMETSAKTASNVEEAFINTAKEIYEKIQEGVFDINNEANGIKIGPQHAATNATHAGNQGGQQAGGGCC

SMILES | EC50 [µM]
COc1ccc(-c2coc(CCC(=O)N3CCN(c4cc(C)ccc4C)CC3)n2)cc1 [1-[4-(2,5-dimethylphenyl)piperazin-1-yl]-3-[4-(4-methoxyphenyl)-1,3-oxazol-2-yl]propan-1-one] | > 30
COc1ccc(-c2noc(CCC(=O)N3CCN(c4cccc(Br)c4)CC3)n2)cc1 [1-[4-(3-bromophenyl)-1-piperazinyl]-3-[3-(4-methoxyphenyl)-1,2,4-oxadiazol-5-yl]-1-propanone] | > 30
COc1ccc(-c2noc(CCC(=O)N3CCN(c4cccc(F)c4)CC3)n2)cc1 [1-[4-(3-fluorophenyl)piperazin-1-yl]-3-[3-(4-methoxyphenyl)-1,2,4-oxadiazol-5-yl]propan-1-one] | > 30
COc1ccc(-c2noc(CCC(=O)N3CCN(c4ccc(Br)cc4)CC3)n2)cc1 [1-[4-(4-bromophenyl)piperazin-1-yl]-3-[3-(4-methoxyphenyl)-1,2,4-oxadiazol-5-yl]propan-1-one] | > 30
COc1ccc(-c2noc(CCC(=O)N3CCN(c4cccc(C(F)(F)F)c4)CC3)n2)cc1 [1-{3-[3-(4-methoxyphenyl)-1,2,4-oxadiazol-5-yl]propanoyl}-4-[3-(trifluoromethyl)phenyl]piperazine] | > 30
COc1ccc(-c2noc(CCC(=O)N3CCN(c4ccccc4)CC3)n2)cc1 [3-[3-(4-methoxyphenyl)-1,2,4-oxadiazol-5-yl]-1-(4-phenylpiperazin-1-yl)propan-1-one] | > 30
COc1ccc(-c2noc(CCC(=O)N3CCN(c4ccc(OC)cc4)CC3)n2)cc1 [3-[3-(4-methoxyphenyl)-1,2,4-oxadiazol-5-yl]-1-[4-(4-methoxyphenyl)piperazin-1-yl]propan-1-one] | > 30
COc1ccc(-c2noc(CCC(=O)N3CCN(c4ccc(F)cc4)CC3)n2)cc1 [KUC103398N] | > 30
COc1ccc(-c2noc(CCC(=O)N3CCN(c4ccc(Cl)cc4)CC3)n2)cc1 [UNM-0000306121] | > 30
COc1ccc(-c2noc(CCC(=O)N3CCN(c4cccc(C)c4)CC3)n2)cc1 [UNM-0000306125] | > 30
COc1ccc(-c2cccc(CCC(=O)N3CCN(c4cc(C)ccc4C)CC3)c2)cc1 [UNM-0000306127] | > 30
COc1ccc(-c2cc(CCC(=O)N3CCN(c4cc(C)ccc4C)CC3)[nH]n2)cc1 [UNM-0000306150] | > 30

Second part, the compound after the results:

EC50 [µM] | SMILES
> 30 | Cc1ccc(C)c(N2CCN(C(=O)CCc3nc(-c4ccccc4C(F)(F)F)no3)CC2)c1
> 30 | Cc1ccc(C)c(N2CCN(C(=O)CCc3nc(-c4ccc(C(F)(F)F)cc4)no3)CC2)c1 [1-[4-(2,5-dimethylphenyl)-1-piperazinyl]-3-[3-[4-(trifluoromethyl)phenyl]-1,2,4-oxadiazol-5-yl]-1-propanone]
> 30 | COc1ccc(-c2noc(CCCCC(=O)N3CCN(c4cc(C)ccc4C)CC3)n2)cc1 [1-[4-(2,5-dimethylphenyl)-1-piperazinyl]-5-[3-(4-methoxyphenyl)-1,2,4-oxadiazol-5-yl]-1-pentanone]
> 30 | COc1ccc(-c2noc(CC(=O)N3CCN(c4cc(C)ccc4C)CC3)n2)cc1 [1-[4-(2,5-dimethylphenyl)piperazin-1-yl]-2-[3-(4-methoxyphenyl)-1,2,4-oxadiazol-5-yl]ethanone]
> 30 | Cc1ccc(C)c(N2CCN(C(=O)CCc3nc(-c4ccccc4Cl)no3)CC2)c1 [3-[3-(2-chlorophenyl)-1,2,4-oxadiazol-5-yl]-1-[4-(2,5-dimethylphenyl)-1-piperazinyl]-1-propanone]
> 30 | COc1ccc(-c2noc(CCC(=O)N3CCN(c4ccc(C(F)(F)F)cc4)CC3)n2)cc1 [3-[3-(4-methoxyphenyl)-1,2,4-oxadiazol-5-yl]-1-[4-[4-(trifluoromethyl)phenyl]piperazin-1-yl]propan-1-one]
> 30 | Cc1ccc(C)c(N2CCN(C(=O)CCc3nc(-c4cccc(F)c4)no3)CC2)c1 [KUC103366N]
> 30 | Cc1ccc(C)c(N2CCN(C(=O)CCc3nc(-c4cccc(C(F)(F)F)c4)no3)CC2)c1 [KUC103380N]
> 30 | Cc1ccc(C)c(N2CCN(C(=O)CCc3nc(-c4ccc(N(C)C)cc4)no3)CC2)c1 [KUC103409N]
> 30 | COc1ccccc1-c1noc(CCC(=O)N2CCN(c3cc(C)ccc3C)CC2)n1 [UNM-0000306071]

Same assay, conditions: inactive by the depositor's call

SMILES | EC50 [µM]
COc1ccc(-c2noc(CCC(=O)N3CCN(c4cccc(Cl)c4)CC3)n2)cc1 | 8.53
COc1ccc(-c2noc(CCC(=O)N3CCN(c4ccccc4C)CC3)n2)cc1 | 2.54
COc1ccc(-c2ccc(CCC(=O)N3CCN(c4cc(C)ccc4C)CC3)s2)cc1 | 2.48
COc1ccc(-c2noc(CCC(=O)N3CCN(c4cccc(C)c4C)CC3)n2)cc1 [1-[4-(2,3-dimethylphenyl)-1-piperazinyl]-3-[3-(4-methoxyphenyl)-1,2,4-oxadiazol-5-yl]-1-propanone] | 2.31
COc1ccc(-c2cc(CCC(=O)N3CCN(c4cc(C)ccc4C)CC3)on2)cc1 [1-[4-(2,5-dimethylphenyl)piperazin-1-yl]-3-[3-(4-methoxyphenyl)-1,2-oxazol-5-yl]propan-1-one] | 2.54
COc1ccc(-c2ccc(CCC(=O)N3CCN(c4cc(C)ccc4C)CC3)[nH]2)cc1 [1-[4-(2,5-dimethylphenyl)piperazin-1-yl]-3-[5-(4-methoxyphenyl)-1H-pyrrol-2-yl]propan-1-one] | 5.22
COc1ccc(-c2noc(CCC(=O)N3CCN(c4ccccc4Cl)CC3)n2)cc1 [1-[4-(2-chlorophenyl)piperazin-1-yl]-3-[3-(4-methoxyphenyl)-1,2,4-oxadiazol-5-yl]propan-1-one] | 2.39
COc1ccc(-c2noc(CCC(=O)N3CCN(c4ccccc4F)CC3)n2)cc1 [1-[4-(2-fluorophenyl)piperazin-1-yl]-3-[3-(4-methoxyphenyl)-1,2,4-oxadiazol-5-yl]propan-1-one] | 0.733
COc1ccc(-c2noc(CCC(=O)N3CCN(c4ccccc4OC)CC3)n2)cc1 [3-[3-(4-methoxyphenyl)-1,2,4-oxadiazol-5-yl]-1-[4-(2-methoxyphenyl)-1-piperazinyl]-1-propanone] | 1.32
COc1ccc(-c2noc(CCC(=O)N3CCN(c4ccc(C)cc4)CC3)n2)cc1 [3-[3-(4-methoxyphenyl)-1,2,4-oxadiazol-5-yl]-1-[4-(4-methylphenyl)piperazin-1-yl]propan-1-one] | 0.708
COc1ccc(-c2noc(CCC(=O)N3CCN(c4cccc(OC)c4)CC3)n2)cc1 [KUC103349N] | 6.46
COc1ccc(-c2noc(CCC(=O)N3CCN(c4ccccc4Br)CC3)n2)cc1 [KUC103370N] | 3.22
COc1ccc(-c2noc(CCC(=O)N3CCC(c4cc(C)ccc4C)CC3)n2)cc1 [KUC103432N] | 2.51
COc1ccc(-c2ccc(CCC(=O)N3CCN(c4cc(C)ccc4C)CC3)o2)cc1 [KUC103447N] | 15.1
COc1ccc(-c2noc(CCC(=O)N3CCN(c4ccccc4C(F)(F)F)CC3)n2)cc1 [UNM-0000306082] | 2.1

Second part, the compound after the results:

EC50 [µM] | SMILES
3.9 | COc1cccc(-c2noc(CCC(=O)N3CCN(c4cc(C)ccc4C)CC3)n2)c1
1.67 | Cc1ccc(C)c(N2CCN(C(=O)CCc3nc(-c4ccccc4C)no3)CC2)c1
2.49 | COc1ccc(-c2noc(CCC(=O)N3CCN(c4cc(C)ccc4C)CC3)n2)cc1 [1-[4-(2,5-dimethylphenyl)-1-piperazinyl]-3-[3-(4-methoxyphenyl)-1,2,4-oxadiazol-5-yl]-1-propanone]
4.14 | Cc1ccc(-c2noc(CCC(=O)N3CCN(c4cc(C)ccc4C)CC3)n2)cc1 [1-[4-(2,5-dimethylphenyl)-1-piperazinyl]-3-[3-(4-methylphenyl)-1,2,4-oxadiazol-5-yl]-1-propanone]
1.32 | Cc1cccc(-c2noc(CCC(=O)N3CCN(c4cc(C)ccc4C)CC3)n2)c1 [1-[4-(2,5-dimethylphenyl)piperazin-1-yl]-3-[3-(3-methylphenyl)-1,2,4-oxadiazol-5-yl]propan-1-one]
3.13 | Cc1ccc(C)c(N2CCN(C(=O)CCc3nc(-c4ccccc4Br)no3)CC2)c1 [3-[3-(2-bromophenyl)-1,2,4-oxadiazol-5-yl]-1-[4-(2,5-dimethylphenyl)-1-piperazinyl]-1-propanone]
16.2 | COc1ccc(-c2noc(CCCC(=O)N3CCN(c4cc(C)ccc4C)CC3)n2)cc1 [KUC103353N]
0.335 | Cc1ccc(C)c(N2CCN(C(=O)CCc3nc(-c4ccc(F)cc4)no3)CC2)c1 [KUC103364N]
3.66 | Cc1ccc(C)c(N2CCN(C(=O)CCc3nc(-c4cccc(Br)c4)no3)CC2)c1 [KUC103367N]
0.908 | Cc1ccc(C)c(N2CCN(C(=O)CCc3nc(-c4ccccc4F)no3)CC2)c1 [KUC103401N]
0.841 | Cc1ccc(C)c(N2CCN(C(=O)CCc3nc(-c4ccccc4)no3)CC2)c1 [UNM-0000306070]
2.94 | Cc1ccc(C)c(N2CCN(C(=O)CCc3nc(-c4ccc(Br)cc4)no3)CC2)c1 [UNM-0000306072]
1.79 | Cc1ccc(C)c(N2CCN(C(=O)CCc3nc(-c4ccc(Cl)cc4)no3)CC2)c1 [UNM-0000306083]
2.9 | Cc1ccc(C)c(N2CCN(C(=O)CCc3nc(-c4cccc(Cl)c4)no3)CC2)c1 [UNM-0000306086]

Source: BindingDB's records for doi:10.7270/Q25H7DQC (Nmmlsc, 2009)
